Patent publication US20060263427A1, “Quinine formulations” (priority 2005, published 2006)
Where a name gives a salt, the structure may show the parent alone. Read-outs that look alike come from different tables or passages of the source.

Assays:
[1] = in vivo
[2] = fasted, non-transformed data, least squares mean
[3] = Mean plasma quinine concentration over 24 hours after single oral dose of Quinine Sulfate (Example 6, Studies 1 and 2); format: in vivo, human; conditions: for concentration at 0 h / concentration at 2 h / concentration at 4 h / concentration at 6 h / concentration at 12 h / concentration at 24 h: both sexes, human, plasma, oral
clinical [4] = conditions: human, plasma, oral
[5] = QTc interval measurements (ECG) over 24 hours after single oral dose of Quinine Sulfate (Example 6, Studies 1 and 2); format: in vivo, human
[6] = 324 mg, 1 capsule, fasted
clinical [7] = conditions: human, in vivo
[8] = 324 mg, Study 1, B: 324 mg capsule, fed
[9] = 324 mg, Study 2, C: 324 mg capsule, fasting
[10] = 648 mg, Study 2, D: 648 mg (two capsules), fasting
[11] = non-transformed data, least squares mean

Question: For `C=C[C@H]1C[N@@]2CC[C@H]1C[C@H]2[C@H](O)c1ccnc2ccc(OC)cc12` [Quinine Sulfate, cinchonan-9-ol, 6′-methoxy-, (8α,9R)-, sulfate (2:1)], which AUC0-INF ([1]; human, 648 mg) is on record?
Answer: The AUC0-INF was 61817.27 ng·h/mL.

Question: What about the AUC0-t ([1]; human, 648 mg) of the same molecule?
Answer: The AUC0-t was 56394.65 ng·h/mL.

Question: And the Cmax ([1]; human, 648 mg)?
Answer: The Cmax was 3174.89 ng/mL.

Question: And the “dose proportionality of AUCT and AUCinf” value [1]?
Answer: The value was “proportional increase”.

Question: And the “dose proportionality of Cmax” value [1]?
Answer: The value was “nonlinear dose proportionality”.

Question: And the kelim ([2]; 324 mg, 1 capsule)?
Answer: The kelim was 0.0592.

Question: And the kelim ([2]; 648 mg, 2 capsules)?
Answer: Its kelim is 0.0572.

Question: And the “Mean Plasma Concentration” value ([3]; Study 2, C: 324 mg capsule, fasting, 0 hours)?
Answer: Its value is 0; ng/ml.

Question: And the concentration at 0 h ([3]; 324 mg, Study 1, B: 324 mg capsule, fed, 0 hours)?
Answer: Its concentration at 0 h is 0 ng/mL.

Question: And the concentration at 2 h [3, 8]?
Answer: The concentration at 2 h was 835 ng/mL.

Question: And the concentration at 4 h [3, 8]?
Answer: Its concentration at 4 h is 2260 ng/mL.

Question: What about the concentration at 6 h [3, 8] of the same molecule?
Answer: The concentration at 6 h was 2010 ng/mL.

Question: And the concentration at 12 h [3, 8]?
Answer: The concentration at 12 h was 1220 ng/mL.

Question: What about the concentration at 24 h [3, 8] of the same molecule?
Answer: The concentration at 24 h was 543 ng/mL.

Question: What about the concentration at 2 h [3, 9] of the same molecule?
Answer: The concentration at 2 h was 1860 ng/mL.

Question: And the concentration at 4 h [3, 9]?
Answer: Its concentration at 4 h is 1880 ng/mL.

Question: And the concentration at 6 h [3, 9]?
Answer: Its concentration at 6 h is 1710 ng/mL.

Question: What about the concentration at 12 h [3, 9] of the same molecule?
Answer: Its concentration at 12 h is 994 ng/mL.

Question: What about the concentration at 24 h [3, 9] of the same molecule?
Answer: The concentration at 24 h was 475 ng/mL.

Question: And the concentration at 0 h ([3]; 648 mg, Study 2, D: 648 mg (two capsules), fasting, 0 hours)?
Answer: The concentration at 0 h was 0 ng/mL.

Question: What about the concentration at 2 h [3, 10] of the same molecule?
Answer: Its concentration at 2 h is 2810 ng/mL.

Question: And the concentration at 4 h [3, 10]?
Answer: The concentration at 4 h was 2950 ng/mL.

Question: What about the concentration at 6 h [3, 10] of the same molecule?
Answer: Its concentration at 6 h is 2720 ng/mL.

Question: And the concentration at 12 h [3, 10]?
Answer: The concentration at 12 h was 1700 ng/mL.

Question: What about the concentration at 24 h [3, 10] of the same molecule?
Answer: The concentration at 24 h was 912 ng/mL.

Question: What about the Tmax (clinical [4]; 260 mg) of the same molecule?
Answer: Its Tmax is 2.61 h.

Question: What about the AUC0-t (clinical [4]; 324 mg) of the same molecule?
Answer: Its AUC0-t is 30300 ng·h/mL.

Question: What about the AUC(0-inf) (clinical [4]; 324 mg) of the same molecule?
Answer: Its AUC(0-inf) is 32100 ng·h/mL.

Question: And the Cmax (clinical [4]; 324 mg)?
Answer: Its Cmax is 2280 ng/mL.

Question: What about the Tmax (clinical [4]; 324 mg) of the same molecule?
Answer: The Tmax was 2.75 h.

Question: And the “subjects with significant prolongations in QTc interval (>450 msec)” value ([5]; 50 subjects, single oral doses 324 mg or 648 mg)?
Answer: Its value is “seven”.

Question: And the “relation of mean QTc value to plasma concentration” value ([5]; single oral doses, Table 1)?
Answer: Its value is “an increase in the mean QTc value was found to correspond with the peak quinine plasma concentration”.

Question: And the Cmax ([6]; Ln-transformed data, geometric mean)?
Answer: The Cmax was 2242.70 ng/mL.

Question: And the AUC0-INF [6, 11]?
Answer: Its AUC0-INF is 33280.89 ng·h/mL.

Question: And the AUC0-t [6, 11]?
Answer: The AUC0-t was 31298.12 ng·h/mL.

Question: And the Tmax (clinical [7]; 324 mg)?
Answer: The Tmax was 2.78 h.

Question: And the Tmax (clinical [7]; 648 mg)?
Answer: The Tmax was 2.8 h.

Question: What about the AUC(0-inf) (clinical [7]; 648 mg, AUC0-INF) of the same molecule?
Answer: The AUC(0-inf) was 59200 ng·h/mL.

Question: What about the AUC0-t (clinical [7]; 648 mg, AUC0-t) of the same molecule?
Answer: The AUC0-t was 54400 ng·h/mL.

Question: And the Cmax (clinical [7]; 648 mg, Cmax)?
Answer: Its Cmax is 3240 ng/mL.
